Measured values: patent publication US11505558B1, “Antiviral heterocyclic compounds” (Enanta Pharmaceuticals, Inc., priority 2019, dated 2022)

Legend:
[1] = tested on: genotype A, "Long" strain RSV; assay: RSV-A assay (CPE, ATPlite readout in Hep-2 cells); type: cell-based; settings: human respiratory syncytial virus, HEp-2, Hep-2 cells, genotype A "Long" strain RSV, MOI 0.1; read-out: Human RSV-A (“Long” strain) EC50
How it was run: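 Hep-2 cells (8,000/well) received 2-fold serial compound dilutions in duplicate and RSV Long strain at MOI 0.1. After 5 days' incubation, cell health was read as ATP by ATPlite luminescence, with virus-only and uninfected controls defining max and minimum CPE; EC50 reported.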

[2] = tested on: recombinant HMPV CAN97-83 (MPV-GFP1); assay: HMPV antiviral assay (MPV-GFP1 eGFP fluorescence in Vero E6 cells); type: cell-based; settings: human metapneumovirus, Vero C1008, 120 h, read-out: HMPV EC50
Procedure: HMPV antiviral activity was evaluated using a recombinant version of HMPV CAN97-83 engineered to contain the coding sequence for enhanced green fluorescence protein (eGFP) in the 3′ end of the virus genome (MPV-GFP1, ViraTree). Vero E6 cells ([…]) were seeded at a density of 12,000 cells/100 μL/well into 96-well cell plates one day prior to the assay. On the day of screening, the cell culture medium was aspirated from the wells and cells were washed twice with serum-free Eagle's Modified Essential Medium (EMEM, ATCC #) containing 1% penicillin-streptomycin (Invitrogen) (SF-EMEM). Cell washes were performed by dispensing 100 μL SF-EMEM per well and immediately aspirating the wash medium from the well. Following the second wash step, serum-free OptiMEM (Invitrogen, Cat No.) (SF-OptiMEM) containing 0.5 μg/mL TPCK-Trypsin (VENDOR) and 1% penicillin-streptomycin was added to the cells at 50 μL/well. Compounds were added into the 96-well plates using a JANUS automated liquid handling system (VENDOR). Compounds were initially diluted 1:50 into an intermediate 96-well plate containing SF-OptiMEM prior to transfer to the assay plate (25 μL/well). Each of the test compounds were tested in duplicate wells at final concentrations starting from 8 μM or 2 μM using ½ stepwise dilutions for a total of 8 points. Virus infection was performed by preparing a working stock of MPV-GFP1 at a multiplicity of infection (MOI) equal to 0.05/25 μL and aliquoting 25 μL of virus inoculum to the compound and positive control wells. SF-OptiMEM was added (25 μL/well) to the appropriate wells to serve as a virus-free negative control for the assay. The final DMSO concentration of all wells is 0.5%. Plates were incubated at 32° C., 5% CO2 for 5 days.
After 5 days incubation, eGFP fluorescence intensity was measured at […] using a Spectramax i3X plate reader (VENDOR). Percent viral inhibition was calculated using the following equation: y=[[…]−(XQ/XP)]×100 Where XQ is the fluorescence intensity measured in a well containing recombinant MPV-GFP1-infected, compound-treated cells and XP is the average fluorescence intensity measured in the wells containing untreated cells infected with recombinant virus. EC50 values were then calculated by non-linear regression using a four parameter curve logistic equation. The curve fit model employed was XLFit Dose Response One Site Model 200: y=(A+(B/(1+((x/C)^D)))) Where A is the minimum y value, B is the maximum y value, C is the log EC50 value, and D is the slope factor. […] EC50 ranges are as follows: A<0.5 μM; B>0.5 μM.

Structure (SMILES)	EC50 [1] [nM]	EC50 [2] [nM]
CCc1cnc2c(OC)cc(C(=O)NC[C@](O)(c3cc4c(c(-c5ccc(F)cc5)n3)OC[C@]4(C)C(N)=O)C(F)(F)F)cc2c1 [Example 262]	< 200	> 500
C[C@](O)(CNC(=O)c1cc(OC2CC2)c2ncccc2c1)c1cc2c(c(-c3ccc(F)cc3)n1)OC[C@]2(C)C(N)=O [Example 265]	< 200	< 500
C[C@]1(C(N)=O)COc2c1cc([C@@](O)(CNC(=O)c1ccc3ncccc3c1)C(F)(F)F)nc2-c1ccc(F)cc1 [Example 269]	< 200	< 500
C[C@]1(C(N)=O)COc2c1cc([C@@](O)(CNC(=O)c1cc(OC3CC3)c3ncccc3c1)C1CC1)nc2-c1ccc(F)cc1 [Example 280]	< 200	< 500
C[C@]1(C(N)=O)COc2c1cc([C@@](O)(CNC(=O)c1cc(Cl)c3ncccc3c1)C1CC1)nc2-c1ccc(F)cc1 [Example 281]	< 200	< 500
C[C@@H](O)COc1cc(C(=O)NC[C@](O)(c2cc3c(c(-c4ccc(F)cc4)n2)OC[C@]3(C)C(N)=O)C(F)(F)F)cc2cccnc12 [Example 287]	> 200	> 500
C[C@@H](O)COc1ccc(C(=O)NC[C@](O)(c2cc3c(c(-c4ccc(F)cc4)n2)OC[C@]3(C)C(N)=O)C(F)(F)F)cc1OC1CC1 [Example 289]	< 200	> 500
COc1cc(C(=O)NC[C@](O)(c2cc3c(c(-c4ccc(F)cc4)n2)OC[C@]3(C)C(N)=O)C(F)(F)F)ccc1OC[C@@H](C)O [Example 290]	< 200	< 500
C[C@]1(C(N)=O)COc2c1cc([C@@](O)(CNC(=O)c1cc(Nc3ccncc3)c3ncccc3c1)C(F)(F)F)nc2-c1ccc(F)cc1 [Example 336]	< 200	> 500
C[C@]1(C(N)=O)COc2c1cc([C@@](O)(CNC(=O)c1cc(Nc3ncccn3)c3ncccc3c1)C(F)(F)F)nc2-c1ccc(F)cc1 [Example 337]	< 200	> 500
C[C@]1(C(N)=O)COc2c1cc([C@@](O)(CNC(=O)c1cc(Nc3cccnc3)c3ncccc3c1)C(F)(F)F)nc2-c1ccc(F)cc1 [Example 339]	< 200	> 500
C[C@]1(C(N)=O)COc2c1cc([C@@](O)(CNC(=O)c1cc(Nc3ncncn3)c3ncccc3c1)C(F)(F)F)nc2-c1ccc(F)cc1 [Example 340]	< 200	> 500
C[C@]1(C(N)=O)COc2c1cc([C@@](O)(CNC(=O)c1cc(Nc3cnccn3)c3ncccc3c1)C(F)(F)F)nc2-c1ccc(F)cc1 [Example 341]	< 200	> 500
C[C@]1(C(N)=O)COc2c1cc([C@@](O)(CNC(=O)c1cc(Nc3cncnc3)c3ncccc3c1)C(F)(F)F)nc2-c1ccc(F)cc1 [Example 342]	< 200	> 500
C[C@]1(C(N)=O)COc2c1cc([C@@](O)(CNC(=O)c1cc(-c3cccnc3)c3ncccc3c1)C(F)(F)F)nc2-c1ccc(F)cc1 [Example 350]	< 200	> 500
COc1cc(C(=O)NC[C@](O)(c2cc3c(c(-c4ccc(F)cc4)n2)OC[C@]3(C)C(N)=O)C(F)(F)F)cc2ccncc12 [Example 361]	< 200	> 500
C[C@]1(C(N)=O)COc2c1cc([C@@](O)(CNC(=O)c1cc(OCC(N)=O)c3ncccc3c1)C(F)(F)F)nc2-c1ccc(F)cc1 [Example 364]	< 200	> 500
Cc1cnc2c(OCC(N)=O)cc(C(=O)NC[C@](O)(c3cc4c(c(-c5ccc(F)cc5)n3)OC[C@]4(C)C(N)=O)C(F)(F)F)cc2c1 [Example 366]	< 200	> 500
CN(C)C(=O)COc1cc(C(=O)NC[C@](O)(c2cc3c(c(-c4ccc(F)cc4)n2)OC[C@]3(C)C(N)=O)C(F)(F)F)cc2cccnc12 [Example 373]	< 200	> 500
CCCNC(=O)COc1cc(C(=O)NC[C@](O)(c2cc3c(c(-c4ccc(F)cc4)n2)OC[C@]3(C)C(N)=O)C(F)(F)F)cc2cccnc12 [Example 374]	< 200	< 500

Structure (SMILES)	EC50 [1] [nM]	EC50 [2] [nM]
CC(C)(Oc1cc(C(=O)NC[C@](O)(c2cc3c(c(-c4ccc(F)cc4)n2)OC[C@]3(C)C(N)=O)C(F)(F)F)cc2cccnc12)C(N)=O [Example 380]	< 200	> 500
C[C@]1(C(N)=O)COc2c1cc([C@@](O)(CNC(=O)c1cc(NCC(N)=O)c3ncccc3c1)C(F)(F)F)nc2-c1ccc(F)cc1 [Example 384]	< 200	> 500
C[C@]1(C(N)=O)COc2c1cc([C@@](O)(CNC(=O)c1cc(Oc3cnccn3)c3ncccc3c1)C(F)(F)F)nc2-c1ccc(F)cc1 [Example 387]	< 200	> 500
C[C@]1(C(N)=O)COc2c1cc([C@@](O)(CNC(=O)c1cc(Oc3ccncc3)c3ncccc3c1)C(F)(F)F)nc2-c1ccc(F)cc1 [Example 388]	< 200	> 500
C[C@]1(C(N)=O)COc2c1cc([C@@](O)(CNC(=O)c1cc(OCc3ncco3)c3ncccc3c1)C(F)(F)F)nc2-c1ccc(F)cc1 [Example 390]	< 200	> 500
CC(=O)Nc1cc(C(=O)NC[C@](O)(c2cc3c(c(-c4ccc(F)cc4)n2)OC[C@]3(C)C(N)=O)C(F)(F)F)cc2cccnc12 [Example 393]	< 200	< 500
Cc1nc(C(=O)Nc2cc(C(=O)NC[C@](O)(c3cc4c(c(-c5ccc(F)cc5)n3)OC[C@]4(C)C(N)=O)C(F)(F)F)cc3cccnc23)co1 [Example 397]	< 200	> 500
C[C@]1(C(N)=O)COc2c1cc([C@@](O)(CNC(=O)c1cc(NC(=O)c3ncco3)c3ncccc3c1)C(F)(F)F)nc2-c1ccc(F)cc1 [Example 398]	< 200	< 500
C[C@]1(C(N)=O)COc2c1cc([C@@](O)(CNC(=O)c1cc(OC3CC3)c3nc(CO)ccc3c1)C(F)(F)F)nc2-c1ccc(F)cc1 [Example 406]	< 200	> 500
C[C@]1(C(N)=O)COc2c1cc([C@@](O)(CNC(=O)c1cc(NC(N)=O)c3ncccc3c1)C(F)(F)F)nc2-c1ccc(F)cc1 [Example 408]	< 200	> 500
CC1(NC(=O)Nc2cc(C(=O)NC[C@](O)(c3cc4c(c(-c5ccc(F)cc5)n3)OC[C@]4(C)C(N)=O)C(F)(F)F)cc3cccnc23)CC1 [Example 411]	< 200	< 500
Cc1cnc2c(NC(=O)C3CC3)cc(C(=O)NC[C@](O)(c3cc4c(c(-c5ccc(F)cc5)n3)OC[C@]4(C)C(N)=O)C(F)(F)F)cc2c1 [Example 416]	< 200	> 500
Cc1cnc2c(NC(=O)NC3CC3)cc(C(=O)NC[C@](O)(c3cc4c(c(-c5ccc(F)cc5)n3)OC[C@]4(C)C(N)=O)C(F)(F)F)cc2c1 [Example 417]	< 200	< 500
Cc1cnc2c(NC(=O)c3coc(C)n3)cc(C(=O)NC[C@](O)(c3cc4c(c(-c5ccc(F)cc5)n3)OC[C@]4(C)C(N)=O)C(F)(F)F)cc2c1 [Example 418]	< 200	< 500
Cc1nc2ccc(C(=O)NC[C@](O)(c3cc4c(c(-c5ccc(F)cc5)n3)OC[C@]4(C)C(N)=O)C(F)(F)F)cc2o1 [Example 424]	< 200	< 500
C[C@]1(C(N)=O)COc2c1cc([C@@](O)(CNC(=O)c1ccc3nc(N)sc3c1)C(F)(F)F)nc2-c1ccc(F)cc1 [Example 429]	< 200	> 500
Cc1nc2ccc(C(=O)NC[C@](O)(c3cc4c(c(-c5ccc(F)cc5)n3)OC[C@]4(C)C(N)=O)C(F)(F)F)cc2s1 [Example 430]	< 200	< 500
COc1cc(C(=O)NC[C@](O)(c2cc3c(c(-c4ccc(F)cc4)n2)OC[C@]3(C)C(N)=O)C(F)(F)F)cc2sc(N)nc12 [Example 431]	< 200	< 500
COc1cc(C(=O)NC[C@](O)(c2cc3c(c(-c4ccc(F)c(Cl)c4)n2)OC[C@]3(C)C(N)=O)C(F)(F)F)cc2sc(N)nc12 [Example 433]	< 200	< 500
